In patent US7838509B2, “Methods and compositions to improve germ cell and embryo survival and function” (Bio-Origyn LLC, priority 1995, dated 2010):

Test system: human sperm
Assay: Human sperm cultured in PCAGH or monomeric sugars: sperm motility vs control HTF (Table 3)
Assay type: cell-based
Conditions: for sperm motility throughout a 24-hr culture period: compared to sperm cultured in arabinose and galactose or in control medium with no polysaccharides; for sperm motility compared to control HTF: human sperm
Protocol: Sperm Motility. Sperm motility measurements may be performed by subjective visual determination using a phase contrast microscope to group sperm into total percent motile (swimming), and total percent progressively motile (swimming forward). AIso the speed of those sperm which are progressively motile is determined, i.e., fast, medium, slow.
Alternatively, CASA can be used to objectively determine the motility characteristics of individual sperm cells in a sample (Davis, Infertility & Reproductive Medicine Clinics 3:341, 1992). A 7 μl sperm sample is placed onto a slide or chamber designed for CASA, and the computer tracks individual sperm cells and determines their motility as to speed over distance. Data is then expressed as percent motile, and specific measurements are given for parameters, such as mean path velocity and track speed. The measurements of velocity and linearity correlate with future fertility in several species studied.
Samples containing sperm are incubated at 37° C. (human) or 39° C. (animal) in 5% CO2 and humidified air. At various timed intervals, sperm survival rate, motility characteristics, functional membrane health and membrane lipid peroxidation levels are determined as described in Example 2.

Compound | sperm motility throughout a 24-hr culture period | sperm motility compared to control HTF (culture time 3 hr) | sperm motility compared to control HTF (culture time 15 hr) | sperm motility compared to control HTF (culture time 24 hr)
O=C[C@H](O)[C@@H](O)[C@@H](O)[C@H](O)C(=O)O [galacturonic acid] | superior sperm motility | + | + | +
galactopyranosylarabinose | superior sperm motility | + | + | +
O=C[C@H](O)[C@@H](O)[C@@H](O)[C@H](O)CO [galactose, reference compound] | – | = (Equivalent sperm motility compared to control HTF) | = (Equivalent sperm motility compared to control HTF) | = (Equivalent sperm motility compared to control HTF)
O=C[C@@H](O)[C@H](O)[C@H](O)CO [arabinose, reference compound] | – | = (Equivalent sperm motility compared to control HTF) | = (Equivalent sperm motility compared to control HTF) | = (Equivalent sperm motility compared to control HTF)
